# From ChEMBL document CHEMBL1150324, “Support vector machines classification of hERG liabilities based on atom types” (Bioorg Med Chem, 2008)
# Tests used:
# [1] = target: Voltage-gated inwardly rectifying potassium channel KCNH2 (Homo sapiens, UniProt Q12809); assay: (§1) Inhibition of human ERG expressed in CHO cells by whole cell patch clamp technique; settings: for pIC50: human
# hERG (KCNH2) = hERG (KCNH2) (Homo sapiens, UniProt Q12809); assay: as §1; settings: human
# [2] = CHO cells that express human ERG
# Voltage-gated inwardly rectifying potassium channel KCNH2, sequence (Q12809 whole entry): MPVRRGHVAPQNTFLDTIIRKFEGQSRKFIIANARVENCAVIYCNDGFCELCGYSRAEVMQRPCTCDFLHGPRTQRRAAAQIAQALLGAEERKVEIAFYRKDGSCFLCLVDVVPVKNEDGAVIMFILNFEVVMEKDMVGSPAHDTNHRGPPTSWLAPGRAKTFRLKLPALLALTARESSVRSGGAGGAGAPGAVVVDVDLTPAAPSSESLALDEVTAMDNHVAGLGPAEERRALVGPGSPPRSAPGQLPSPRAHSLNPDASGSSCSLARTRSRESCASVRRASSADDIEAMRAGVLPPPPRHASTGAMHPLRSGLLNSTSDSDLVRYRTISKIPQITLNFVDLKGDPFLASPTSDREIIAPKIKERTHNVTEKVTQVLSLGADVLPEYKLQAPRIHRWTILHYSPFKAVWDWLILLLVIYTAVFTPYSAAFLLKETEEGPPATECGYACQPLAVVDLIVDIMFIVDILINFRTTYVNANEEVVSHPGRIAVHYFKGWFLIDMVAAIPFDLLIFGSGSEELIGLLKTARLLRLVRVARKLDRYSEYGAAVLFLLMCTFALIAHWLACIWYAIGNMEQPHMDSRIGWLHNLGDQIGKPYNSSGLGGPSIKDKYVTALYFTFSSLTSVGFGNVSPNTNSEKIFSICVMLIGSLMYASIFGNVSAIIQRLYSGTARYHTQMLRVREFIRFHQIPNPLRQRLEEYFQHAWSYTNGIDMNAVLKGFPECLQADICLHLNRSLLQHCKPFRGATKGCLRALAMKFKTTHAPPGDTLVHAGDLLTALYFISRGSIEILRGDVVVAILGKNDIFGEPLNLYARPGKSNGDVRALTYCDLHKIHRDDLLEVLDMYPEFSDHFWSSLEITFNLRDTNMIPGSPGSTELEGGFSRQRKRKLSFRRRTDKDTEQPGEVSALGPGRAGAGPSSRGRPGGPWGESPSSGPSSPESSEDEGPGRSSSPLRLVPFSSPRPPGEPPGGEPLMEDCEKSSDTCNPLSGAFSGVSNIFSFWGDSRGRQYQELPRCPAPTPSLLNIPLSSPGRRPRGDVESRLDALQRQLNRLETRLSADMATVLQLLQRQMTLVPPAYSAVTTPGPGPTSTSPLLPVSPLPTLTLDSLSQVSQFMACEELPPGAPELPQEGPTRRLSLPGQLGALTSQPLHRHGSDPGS
# hERG (KCNH2), sequence (Q12809 whole entry): as above
smiles,measurement,setting,value
COc1ccc(C2CCN(CC[C@H]3CCOc4ccccc43)CC2)cc1OC,pIC50,[1]; cho,6.7
CC[C@H]1OC(=O)[C@H](C)[C@@H](O[C@H]2C[C@@](C)(OC)[C@@H](O)[C@H](C)O2)[C@H](C)[C@@H](O[C@@H]2O[C@H](C)C[C@H](N(C)C)[C@H]2O)[C@](C)(OC)C[C@@H](C)C(=O)[C@H](C)[C@@H](O)[C@]1(C)O [CLARITHROMYCIN],pIC50,[1]; cho,4.23
Oc1ccc(CCN2CCC(Nc3nc4ccccc4n3Cc3ccc(F)cc3)CC2)cc1 [DESMETHEYLASTEMIZOLE],IC50,[1],0.001 µM
COc1c(N2CCNC(C)C2)c(F)cc2c(=O)c(C(=O)O)cn(C3CC3)c12 (configuration not stated) [GATIFLOXACIN],IC50,[1],129 µM
O=C(OC1CC2CC3CC(C1)N2CC3O)c1c[nH]c2ccccc12 (configuration not stated) [MDL-74156],IC50,[1],5.89 µM
CN(c1nccc(=O)[nH]1)C1CCN(c2nc3ccccc3n2Cc2ccc(F)cc2)CC1 [MIZOLASTINE],pIC50,[1]; cho,6.36
CN1CCC[C@H]1c1cccnc1 [NICOTINE],pIC50,[1]; cho,3.61
CCOC(=O)C1=C(C)NC(C)=C(C(=O)OC)C1c1cccc([N+](=O)[O-])c1 (configuration not stated) [NITRENDIPINE],IC50,hERG (KCNH2); [2],10 µM
Cc1cc2c(s1)Nc1ccccc1N=C2N1CCN(C)CC1 [OLANZAPINE],pIC50,[1]; cho,6.74
C[C@@H]1CN(c2c(F)c(N)c3c(=O)c(C(=O)O)cn(C4CC4)c3c2F)C[C@H](C)N1 [SPARFLOXACIN],pIC50,[1]; [2],4.74
COc1ccc(C2CCN(CC[C@H]3CCOc4ccccc43)CC2)cc1OC [TERIKALANT],IC50,hERG (KCNH2); cho,0.251 µM
COc1ccc(C(=O)N2CCN(c3ccc4c(c3)CCC(=O)N4)CC2)cc1OC [VESNARINONE],pIC50,[1]; [2],5.96
